Results published in patent publication US9968626B2, “Method for treating obesity” (Rhamnopharma Inc., priority 2011, dated 2018).

Assay: Body weight of allergic-rhinitis-sensitized Balb/C mice after intranasal rhamnolipid doses (Example 1)
Assay type: in vivo
Details: 0.5% solution in saline, 5 μl per nostril at two time points on Day 37 (total 20 μl)
Text: Originally, the objective of this study was to determine the effects of treatment with three different pharmaceutical formulations of rhamnolipids within the context of an allergic rhinitis study in mice. However, the weight loss effects due to treatment with the various rhamnolipids were unexpectedly discovered during the course of this study. Materials Animal: Balb/C mice were used in this study and were eight weeks old. The treatment groups and the placebo group were each composed of 10 mice. Allergenization was performed in a similar fashion as reported in the literature. Sensitization Materials: The following were used to sensitize and induce allergic rhinitis in the mice:
Mice were sensitized once-weekly with four intraperitoneal injections of OVA/Alum (Day 0, […], 14 and 21). From Day 22-39, anesthetized mice were administered once-daily doses of the OVA stock solution instilled in each nostril.
On Day 37, mice were assigned to one of three rhamnolipid treatment groups or a placebo group. The rhamnolipid treatment groups received a rhamnolipid mixture containing RPI-100, RPI-200, or RPI-300. […] Body weights of the mice were measured and recorded on Days 35, 37, and 39 as part of a standard animal safety observation protocol. […]

Compound: CCCCCCCC(CC(=O)O)OC(=O)CC(CCCCCCC)O[C@@H]1O[C@@H](C)[C@H](O)[C@@H](O)[C@H]1O (stereo partly drawn) [RPI-200, L-rhamnosyl-β-hydroxydecanoyl-β-hydrocydecanoate]
- body weight, 2 days post-treatment (Day 39) compared with 2 days pre-treatment (Day 35), versus placebo: statistically significant reduction in body weight
